Assay results taken from patent publication US20070185020A1, “Methods and compositions for treating disorders of the extracellular matrix” (priority 2003, published 2007).

How the values were obtained:
CDA1 [1] = assay: CDA1 expression in kidney after angiotensin II infusion (immunohistochemistry); assay type: in vivo, rat
Experimental: Ang II was continuously infused into rats by subcutaneously inserted minipump for 3 days or 14 days at both pressor (60 ng/min) and non-pressor doses (6 ng/min) in eight week old male Sprague Dawley (SD) rats (Cao et al Z; The angiotensin type 2 receptor is expressed in adult rat kidney and promotes cellular proliferation and apoptosis. Kidney int. 2000; 58:2437-2451).
CDA1 staining was performed using a rabbit antihuman CDA1 serum (Chai et al, 2001) in paraffin embedded sections. In brief, following dewaxing, paraffin embedded sections were treated in a microwave oven at low power for 10 minutes in 10 mmol/L sodium citrate buffer (pH 6.0). Endogenous peroxidase was inactivated using 3% hydrogen peroxide (H2O2) in methanol for 20 minutes. The sections were blocked with protein block agent for 20 minutes. The sections were incubated with rabbit antihuman CDA1 serum for 2 hour at room temperature. Biotinylated goat anti-rabbit immunogloblulin (DAKO A/S) was used as a second antibody, followed by avidin biotin horseradish peroxidase complex (ABC Elite kit, Victor Laboratories, Burlingame, Calif.). Detection was accomplished by reaction with 3,3′-diaminobenzidine tetrahydrochloride (DAB, Sigma Chemical Co., St Louis, Mo.) (Cao Z et al. The angiotensin type 2 receptor is expressed in adult rat kidney and promotes cellular proliferation and apoptosis. Kidney Int. 2000; 58:2437-2451.

CDA1 [2] = assay: CDA1 expression and fibrosis in the remnant kidney following subtotal nephrectomy (STNx); assay type: in vivo, rat; conditions: preliminary data
Experimental: Subtotal nephrectomy (STNx) were performed by right nephrectomy, followed by infarction of approximately two-thirds of the left kidney with selective ligation of all but one extrarenal branch of the left renal artery (CIA40). Anaesthesia was achieved by intraperitoneal injection of pentobarbitone sodium (60 mg/kg). Sham operated rats were used as controls. After operation, the animals were sacrificed at 1, 2, 4, 8 and 12 week and tissue collected for assessment of CDA1 expression and fibrotic growth factors as well as matrix proteins. CDA1 staining was performed using a rabbit antihuman CDA1 serum (Chai et al, 2001) in paraffin embedded sections. In brief, following dewaxing, paraffin embedded sections were treated in a microwave oven at low power for 10 minutes in 10 mmol/L sodium citrate buffer (pH 6.0). Endogenous peroxidase was inactivated using 3% hydrogen peroxide (H2O2) in methanol for 20 minutes. The sections were blocked with protein block agent for 20 minutes. The sections were incubated with rabbit antihuman CDA1 serum for 2 hour at room temperature. Biotinylated goat anti-rabbit immunogloblulin (DAKO A/S) was used as a second antibody, followed by avidin biotin horseradish peroxidase complex (ABC Elite kit, Victor Laboratories, Burlingame, Calif.). […]

CDA1 [3] = conditions: in vitro; reported by other workers; cited from earlier work

Compound: CCCCC(=O)N(Cc1ccc(-c2ccccc2-c2nnn[nH]2)cc1)[C@H](C(=O)O)C(C)C [valsartan]
- Effect on increased CDA1 expression following Ang II infusion (CDA1 [1]; treatment with AT1 receptor antagonist, data not shown): prevented
- Effect on cell injury in remnant kidney (CDA1 [2]): less cell injury
- Effect on CDA1 expression in remnant kidney (CDA1 [2]; FIG. 3B): attenuation of CDA1 expression

Compound: TGF β1: growth factor; CDA1 described as a TGF β1 target gene
- CDA1 expression (CDA1 [3]): increased

Compound: angiotensin II (DRVYIHPF; Angiotensin-2; UniProt P01015 25-32, looked up) [Ang II, peptide hormone infused into rats by minipump to stimulate CDA1 expression]
- CDA1 expression after angiotensin II infusion (CDA1 [1]; immunohistochemical staining, proximal tubules, subcutaneous minipump infusion in Sprague Dawley rats): increased CDA1 expression
